Test results from article PMC6340938, “Three Novel ACE Inhibitory Peptides Isolated From Ginkgo biloba Seeds: Purification, Inhibitory Kinetic and Mechanism” (Frontiers in Pharmacology, 2019).
Like-named read-outs stand apart in the source and are kept apart here. Where no end group is shown, it is not given here.

Tests used:
[1] = currently used blood pressure lowering drugs; ref Yu et al., 2018; cited from earlier work
Description: As per the World Health Organization estimate, CVD accounts for the mortality of more than 17.5 million people every year. Among the important characteristics of CVD, hypertension is an essential target for the prevention and treatment of CVD ([Celermajer et al., 2012]). […] Lately, signific ...

ACE = settings: 2017, cited from earlier work; for ACE inhibitory activity (in words): peptides containing hydrophobic amino acid (Leu), ref Lee and Hur; for Inhibition mode: ref Lin et al.
Description: According to report by [Hernández-Ledesma et al. (2011)], most of the ACE inhibiting peptides were short sequences consisting of 2–12 amino acids. In addition, the activity of the ACE-inhibiting peptide was strongly related to the pres ... || The mode of inhibition of ACE-inhibiting peptides was observed generally non-competitive, competitive, and mixed.

[2] = target: T1, angiotensin converting enzyme (ACE) (Homo sapiens, UniProt P12821); test: ACE inhibitory activity, HHL substrate, RP-HPLC of hippuric acid; assay type: biochemical; settings: synthetic peptides, purity >95%; HHL 5 mM, borate pH 8.3, 0.3 M NaCl, 37°C, 45 min, ACE 50 mU/mL; RP-HPLC 228 nm; mean, n = 3
Method: This test was performed as per the descriptions are given by the previous report by [O’Loughlin et al. (2014)] with some modifications. Briefly, the substrate hippuryl-histidyl-leucine (HHL, 5 mM) and samples were mixed in 0.1 M Na2[B4O5(OH)4] (pH 8.3) with 0.3 M sodium chloride. Then after, 50 μL of sample and 150 μL of the substrate were added to a centrifuge tube, mixed and allowed to stand in water at 37°C for 5 min. Subsequently, the ACE solution (50 mU/mL) was added and incubated at 37°C for 45 min. The reaction was terminated by adding 250 μL of 1M HCl and the solution was filtered through […] nylon syringe filter before being analyzed by RP-HPLC (Waters, Milford, MA, United States) on an Inertsil ODS-3 (250 × 4.6 mm, 5 μm particle size). The mobile phase comprised of distilled water: acetonitrile = 75:25 (V/V, with 0.1% TFA) with a flow rate of 0.5 mL/min and detection at 228 nm. Captopril was used as a control and the inhibitory activity (%) was determined as below:
ACE inhibitory activity (%)=[(A−B)/A]×100
where A was the peak area of hippuric acid with the sample, B was without the sample.

[3] = target: T1, angiotensin converting enzyme (ACE); test: Kinetics of ACE inhibition, Lineweaver-Burk plot; assay type: biochemical; settings: HHL 0.5, 1, 2, 5 mM, peptide 0, 15, 30 μM
Method: The kinetic inhibition model of G. biloba peptide was tested using the method of [Lin et al. (2017)]. Briefly, different concentrations of substrate HHL (0.5, 1, 2, and 5 mM) were allowed to react with ACE. The Lineweaver-Burk plot was based on the reciprocal of the reaction rate (1/v) and the substrate concentration (1/[s]). The intercepts on the X- and Y-axes represented the reciprocals of Km and Vmax, respectively.
FIGURE 5 The Lineweaver-Burk plot of the inhibitory effects on ACE activities of peptides. (A) TNLDWY, (B) RADFY, and (C) RVFDGAV. The ACE activities were determined in the absence and presence of different concentrations of the peptides (0, 15, and 30 μM).

[4] = Qula casein and hazelnut peptides, Liu et al., 2018

T1 sequence (P12821 30-1306, species assumed): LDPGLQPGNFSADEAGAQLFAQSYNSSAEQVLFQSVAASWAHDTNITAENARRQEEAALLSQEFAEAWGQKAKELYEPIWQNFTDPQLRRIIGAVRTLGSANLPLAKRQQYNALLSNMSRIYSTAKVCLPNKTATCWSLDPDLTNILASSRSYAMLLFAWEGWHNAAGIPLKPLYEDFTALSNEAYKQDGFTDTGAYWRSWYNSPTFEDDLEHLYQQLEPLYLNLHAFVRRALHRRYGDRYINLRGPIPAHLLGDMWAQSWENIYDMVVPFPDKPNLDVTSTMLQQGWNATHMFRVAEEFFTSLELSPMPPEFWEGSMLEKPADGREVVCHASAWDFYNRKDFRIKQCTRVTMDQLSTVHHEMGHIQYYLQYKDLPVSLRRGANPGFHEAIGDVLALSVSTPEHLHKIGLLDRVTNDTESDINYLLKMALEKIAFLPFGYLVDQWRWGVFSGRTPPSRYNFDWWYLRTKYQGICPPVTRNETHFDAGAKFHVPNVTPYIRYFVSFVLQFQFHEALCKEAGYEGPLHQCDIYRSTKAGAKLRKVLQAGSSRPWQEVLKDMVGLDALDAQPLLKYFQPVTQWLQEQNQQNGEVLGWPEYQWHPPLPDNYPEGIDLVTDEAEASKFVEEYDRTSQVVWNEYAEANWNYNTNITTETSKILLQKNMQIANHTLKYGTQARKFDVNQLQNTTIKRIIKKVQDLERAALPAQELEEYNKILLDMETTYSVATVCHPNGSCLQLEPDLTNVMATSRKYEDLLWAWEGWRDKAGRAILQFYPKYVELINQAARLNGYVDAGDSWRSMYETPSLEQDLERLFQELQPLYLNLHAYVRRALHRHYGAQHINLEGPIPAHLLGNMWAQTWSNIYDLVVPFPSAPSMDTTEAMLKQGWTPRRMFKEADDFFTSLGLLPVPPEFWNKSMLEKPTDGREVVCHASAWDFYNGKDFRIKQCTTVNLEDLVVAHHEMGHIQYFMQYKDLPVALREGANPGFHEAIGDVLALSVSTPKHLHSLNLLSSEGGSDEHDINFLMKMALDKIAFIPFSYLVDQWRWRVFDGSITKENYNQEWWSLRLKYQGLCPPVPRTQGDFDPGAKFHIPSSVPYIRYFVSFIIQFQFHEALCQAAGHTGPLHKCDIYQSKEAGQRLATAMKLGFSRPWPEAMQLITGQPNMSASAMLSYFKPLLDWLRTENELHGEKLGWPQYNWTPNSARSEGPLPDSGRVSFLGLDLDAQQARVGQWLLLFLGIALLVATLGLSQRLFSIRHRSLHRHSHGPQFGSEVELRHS

In the case of C[C@H](CS)C(=O)N1CCC[C@H]1C(=O)O [captopril], the Adverse reactions [1] is listed as “cough, rash, and headache”.

For CCOC(=O)[C@H](CCc1ccccc1)N[C@@H](C)C(=O)N1CCC[C@H]1C(=O)O [enalapril], the Adverse reactions [1] is given as “cough, rash, and headache”.

In the case of KPLL, the “ACE inhibitory activity (in words)” value (ACE) is given as “appreciable ACE inhibitory activity”.

For KYIPIQ [peptide from Qula casein], the Inhibition mode (ACE; peptides from Qula casein) is listed as “competitive inhibition mode”.

In the case of LPLPLL [peptide from Qula casein], the Inhibition mode (ACE; peptides from Qula casein) is given as “competitive inhibition mode”.

For PFPGPIPN, the Inhibition mode (ACE; [4]) is listed as “non-competitive”.

In the case of RADFY [RADFY, Arg-Ala-Asp-Phe-Tyr], the IC50 [2] is reported as 1350 µM and the “Effect on Km” value [3] is reported as “Km increased with the increasing peptide concentration”.

For “RVFDGAV [RVFDGAV, Arg-Val-Phe-Asp-Gly-Ala-Val]”, the IC50 [2] was 1010 µM and the “Effect on Km” value [3] was “Km increased with the increasing peptide concentration”.

With “TNLDWY [TNLDWY, Thr-Asn-Leu-Asp-Trp-Tyr]” the IC50 [2] was 1930 µM and the “Effect on Km” value [3] was “Km did not change significantly with peptide concentration”.

For VLAQYK, the “ACE inhibitory activity (in words)” value (ACE) is listed as “appreciable ACE inhibitory activity”.

For YLVR [hazelnut peptide], the Inhibition mode (ACE; [4]) is given as “non-competitive”.
